Columns and labels:
primary human GB cells [1] = experiment: cell migration on flat (smooth) substrata; type: cell-based
Protocol: Cells were cultured in the multi-well, nanopatterned device for approximately 48 hours in the course of each experiment. […] These topographically patterned cell substrata, caused cells to align with and move along the direction of the nanoridges. Both prior to, and during experiments cells were maintained at 37° C. and 5% CO2 in Dulbecco's Modified Eagle Medium: Nutrient Mixture F-12 containing 2 mM L-glutamine, with added 50 U mL-1 penicillin, […] streptomycin. Where indicated, media contained 10% fetal bovine serum (Invitrogen) or alternatively, Platelet-Derive Growth Factor-AA (PDGF-AA) (LC Laboratories) at specified concentrations.
Cell migration was observed using time-lapse microscopy (Movies S1-S3). […] Phase contrast cell images were automatically recorded under 10× objective (NA=0.30) using the SlideBook™ 4.1 Software (Intelligent Imaging Innovations, Denver, Colo.) for 10-15 hours at 10 or 20 minute intervals.
Because cell-cell contact is known to affect the extent of cell spreading and migration, cells were plated at low density (˜4×10^4 cells mL -1) to allow isolated movements. […] Area and spindle shape factor of individual cells was measured in each frame, and averaged over the entire duration of the experiment. […] Averages of cell populations were calculated from at least 60 cells. […]

primary human GB cells [2] = experiment: cell migration on multi-well nanopatterned platform (time-lapse microscopy); type: cell-based; conditions: for fraction of cells maintaining slower speeds (≦15 μm/hr): PDGF-exposed
Protocol: Cells were cultured in the multi-well, nanopatterned device for approximately 48 hours in the course of each experiment. Prior to plating cells, nanoridged substrata were coated with poly-D-lysine (10 μg ml-1) for 15 minutes and mouse laminin (from 10 to 140 μg ml-1) for 1 hour. These topographically patterned cell substrata, caused cells to align with and move along the direction of the nanoridges. Both prior to, and during experiments cells were maintained at 37° C. and 5% CO2 in Dulbecco's Modified Eagle Medium: Nutrient Mixture F-12 containing 2 mM L-glutamine, with added 50 U mL-1 penicillin, […] streptomycin. Where indicated, media contained 10% fetal bovine serum (Invitrogen) or alternatively, Platelet-Derive Growth Factor-AA (PDGF-AA) (LC Laboratories) at specified concentrations.
Cell migration was observed using time-lapse microscopy (Movies S1-S3). To enable long-term observation, the multi-well, nanopatterned device was mounted onto the stage of a motorized inverted microscope (Olympus IX81) equipped with a Photometrics® Cascade® 512B II CCD camera and temperature and gas controlling environmental chamber. Phase contrast cell images were automatically recorded under 10× objective (NA=0.30) using the SlideBook™ 4.1 Software (Intelligent Imaging Innovations, Denver, Colo.) for 10-15 hours at 10 or 20 minute intervals.
Because cell-cell contact is known to affect the extent of cell spreading and migration, cells were plated at low density (˜4×10^4 cells mL -1) to allow isolated movements. A custom-made MATLAB® script was used allow manual tracking and measurement of cells frame by frame. Analysis was stopped in the event of cell death, division, collision with non-cellular debris, or movement out of the field of view. Area and spindle shape factor of individual cells was measured in each frame, and averaged over the entire duration of the experiment. The spindle shape factor was defined as the ratio of the maximum cell length (long axis) to the maximum cell width in the direction perpendicular to long axis, regardless of the orientation with respect to nanoridge pattern. Averages of cell populations were calculated from at least 60 cells.
Cells movements were tracked by centroid position or by the approximate center of the cell body. Individual cell trajectories were used to calculate the mean squared displacement (MSD) at each interval. Instantaneous speeds of individual cells were calculated from the MSD and the duration of the image acquisition time interval. Average speeds of individual cells were calculated from the total distanced moved throughout the entire cell trajectory and the total time the cell was tracked. Persistence was obtained as previously described, by calculating the ratio of the shortest distance between starting point and end point, divided by the total distanced moved. Alignment to the nanoridge pattern was calculated by dividing the distance moved parallel to the ridges, by the distance moved perpendicular to the ridges. Averages of cell populations were calculated from at least 60 cells.

GB = conditions: cited from earlier work
PDGFRα = PDGFRα (Homo sapiens, UniProt P16234); conditions: cited from earlier work
Sequence of PDGFRα (P16234 24-1089): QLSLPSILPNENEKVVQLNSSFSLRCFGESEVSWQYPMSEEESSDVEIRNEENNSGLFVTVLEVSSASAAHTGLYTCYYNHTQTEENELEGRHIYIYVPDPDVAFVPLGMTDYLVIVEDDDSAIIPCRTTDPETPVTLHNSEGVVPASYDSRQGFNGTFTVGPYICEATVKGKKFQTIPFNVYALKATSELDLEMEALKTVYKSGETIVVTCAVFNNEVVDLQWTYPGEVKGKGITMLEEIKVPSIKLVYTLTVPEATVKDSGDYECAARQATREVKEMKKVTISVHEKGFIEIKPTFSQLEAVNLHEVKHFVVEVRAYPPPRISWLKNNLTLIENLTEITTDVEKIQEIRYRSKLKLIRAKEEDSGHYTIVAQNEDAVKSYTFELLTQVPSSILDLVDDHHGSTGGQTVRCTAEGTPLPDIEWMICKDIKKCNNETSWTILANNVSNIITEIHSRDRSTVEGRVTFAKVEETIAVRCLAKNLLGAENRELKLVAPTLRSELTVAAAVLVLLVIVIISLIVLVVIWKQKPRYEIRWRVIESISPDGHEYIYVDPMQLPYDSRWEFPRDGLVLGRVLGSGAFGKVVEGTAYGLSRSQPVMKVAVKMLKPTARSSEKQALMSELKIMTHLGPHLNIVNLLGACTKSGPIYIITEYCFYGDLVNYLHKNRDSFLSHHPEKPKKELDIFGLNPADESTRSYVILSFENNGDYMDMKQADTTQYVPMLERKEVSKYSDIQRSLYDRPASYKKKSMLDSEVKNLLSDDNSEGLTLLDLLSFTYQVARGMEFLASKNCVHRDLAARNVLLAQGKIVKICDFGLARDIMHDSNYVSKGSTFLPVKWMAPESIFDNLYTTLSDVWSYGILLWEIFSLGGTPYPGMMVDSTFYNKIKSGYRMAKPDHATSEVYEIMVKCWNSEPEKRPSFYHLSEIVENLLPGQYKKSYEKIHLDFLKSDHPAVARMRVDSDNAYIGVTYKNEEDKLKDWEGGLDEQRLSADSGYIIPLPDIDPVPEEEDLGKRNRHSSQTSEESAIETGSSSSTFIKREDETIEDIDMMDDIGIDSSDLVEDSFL

Akt = Akt phosphorylation via immunoblotting; type: cell-based, human; conditions: FIG. 10B
Protocol: Total cellular protein was extracted using NE-PER Nuclear and Cytoplasmic Extraction Reagents kit according to the manufacturer's instructions (Thermo Scientific) containing protease (Roche) and phosphatase inhibitor (Thermo). Protein concentration was determined using the Bradford protein quantification method (Biorad Protein Assay, Biorad). SDS-PAGE was performed with 25 μg total cellular protein per lane using 4-12% gradient Tris glycine gels. The primary antibodies used were as follows: anti PDGFR-alpha (1:200; Santa Cruz); phospho-PDGFR alpha (1:1000; Cell Signaling); Akt (1:1000; Cell Signaling);
phospho-Akt (1:1000; Cell Signaling).

human GB cells = experiment: mouse intracranial tumor xenograft of human GB cells with PDGF exposure; type: in vivo
Protocol: All animal protocols were approved by the Johns Hopkins School of Medicine Animal Care and Use Committee. For intracranial xenografts, SCID immnodeficient mice received 100,000 viable cells in 1 μl of DMEM/F12 serum media without growth factors by stereotactic injection into the right striatum. Cells were cultured in DMEM/F12 serum media with EGF/FGF and PDGF-AA ligand for three weeks before injections were performed. Cell viability was determined by trypan blue dye exclusion. Mice were perfused with 4% paraformaldehyde at the indicated times and the brains were removed for histological analysis.

In the case of “laminin: surface-immobilized ECM protein used to coat substrata”, the “differences in migration at varying laminin densities” value (primary human GB cells [1]; GB 318 cells) is reported as “did not observe statistically significant differences” and the “response of speed, alignment and persistence to laminin coating concentration” value (primary human GB cells [2]; GB 318 cells, nanopatterned substrata, optimum at intermediate laminin values) is reported as “biphasic response”.

For `Cc1ccc(NC(=O)c2ccc(CN3CCN(C)CC3)cc2)cc1Nc1nccc(-c2cccnc2)n1` [Imatinib], the “effect on PDGF-stimulated migration (speed and alignment)” value (primary human GB cells [2]; 'responding' sample GB 276, PDGF-stimulated) is listed as “attenuation of enhancements in speed and alignment”, the GB growth (GB) is listed as “inhibit GB growth in vitro and in vivo” and the “interaction with PDGFRα” value (PDGFRα) is listed as “known to interact with PDGFRα”.

With PDGF the “migratory response to PDGF exposure” value (primary human GB cells [1]) was “much more limited responses”, the “increase in migration speed upon PDGF stimulation vs unstimulated cells” value (primary human GB cells [2]; 'responding' GB samples, PDGF 40-50 ng/mL) was 15-100% and the “fraction of cells maintaining slower speeds (≦15 μm/hr)” value (primary human GB cells [2]; GB 318 cells) was “roughly 70%”. The “fraction of cells maintaining slower speeds (≦15 μm/hr)” value (primary human GB cells [2]; GB 630 cells) was ~60%, the “sub-population of aggressive cells accounting for the increased average migration speed” value (primary human GB cells [2]; in the presence of PDGF) was “approximately 20%” and the “maximal motility relative to control” value (primary human GB cells [2]; nanopatterned system, intermediate PDGF concentrations, serum-free medium) was “up to 2 fold”. The “dose dependence of response in migration speed and persistence” value (primary human GB cells [2]; nanopatterned system, seven PDGF concentrations) was “clear graded dose dependence”, the “phosphorylation (activation) of downstream effector Akt” value (Akt) was “PDGFdependent” and the survival of mice (human GB cells; GB 276 neurospheres cultured with PDGF three weeks before intracranial injection, n=4) was “significantly reduced survival”. The “tumor size, invasiveness and shape” value (human GB cells; continuous PDGF exposure of tumor xenografts via infusion pump, n=2) was “larger, more invasion tumors with more eccentric shapes”.

Source: patent US20170016884A1, “A NOVEL, HIGH-THROUGHPUT, NANOTOPOGRAPHIC PLATFORM FOR SCREENING CELL MIGRATORY BEHAVIOR” (THE JOHNS HOPKINS UNIVERSITY, priority 2014, published 2017)
